Test results taken from US8916542B2, “Chitosan derivatives, compositions and related methods of use” (Synedgen, Inc., priority 2008, dated 2014).
Where two headings read alike, the source gives them in different places.

What was measured:
[1] = system: Pseudomonas aeruginosa, PA01; experiment: MIC of antibiotics with added chitosan-arginine (live/dead checkerboard); assay type: cell-based; conditions: for factor of decrease of MIC: addition of 4 μg/ml chitosan-arginine
Protocol: The assay was conducted as follows. In each case, the minimum inhibitory concentration (MIC) in μg/ml was determined for the antibiotic alone against Pseudomonas aeruginosa.

[2] = system: Mupirocin and Methicilin resistant Staphylcoccus aureus (MMRSA, 2-4C strain); experiment: Checkerboard time course assay (vCFU) in water; assay type: cell-based, Staphylococcus aureus
Protocol: (§1) The plate was allowed to sit for 24 hours, before being centrifuged at 4000 RPM for 10 minutes, and resuspended in an appropriate enriched growth media (LB or Todd Hewitt Broth). The optical density of the plate was read over the course of 24 hours at 37° C. The optical density readings were used to compute a time to an arbitrary threshold of 0.25, which is correlated using a growth curve for this MMRSA, to virtual colony forming (vCFU) counts.

MMRSA = experiment: Sensitization summary: MMRSA to Mupirocin; assay type: cell-based, Staphylococcus aureus; conditions: Mupirocin resistance breakpoint 8 μg/mL
Protocol: (§2) By definition, resistance is defined by a “resistance breakpoint” above which a bacterium is considered resistant (and is related to side effects and toxicity).
as §1

MRSA = experiment: Sensitization summary: MRSA to Oxacillin; assay type: cell-based, Staphylococcus aureus
Protocol: as §2
(§3) Approximately 10^5 cells were added to each of the wells. […] Optical density readings of the plate were taken, and averaged to determine inhibited samples Inhibition is defined by the final optical density (OD) being less than or equal to ½ the control OD.

[3] = system: MRSA strain MW-2 (ATCC BAA-1707); experiment: Standard checkerboard assay in Mueller Hinton media, chitosan-arginine and Oxacillin; assay type: cell-based; conditions: Staphylococcus aureus
Protocol: Bacteria were incubated at 37° C. for the standard 20 hours. MRSA MIC values were obtained by OD595 (optical density). The entire experiment was repeated three times.

[4] = system: MRSA strain MW-2 (ATCC BAA-1707); experiment: Checkerboard vCFU assay chitosan-arginine and Oxacillin in PBS; assay type: cell-based, Staphylococcus aureus; conditions: alone
Protocol: Approximately 10^6 cells/mL were added to each well. Incubation occurred at ambient temperature for 20 h, then bacteria were centrifuged and resuspended in an appropriate growth media. The optical density (OD) was read over the course of 18 h at 37° C. The time (in seconds) to an arbitrary threshold OD of 0.15 was used with reference to a growth curve, to calculate the initial bacterial concentration of bacteria (vCFU).

[5] = system: MRSA strain MW-2 (ATCC BAA-1707); experiment: Chitosan-arginine/Oxacillin checkerboard growth inhibition assay; assay type: cell-based, Staphylococcus aureus; conditions: chitosan-arginine 1 μg/mL alone or Oxacillin 0.78 μg/mL alone
Protocol: Approximately 10^5 cells was added to each of the wells. The optical density of the plate was read over the course of 24 hours at 37° C.

[6] = system: P. aeuriginosa strain PA01 (ATCC BAA-47); experiment: Checkerboard assay chitosan-arginine and Tobramycin; assay type: cell-based; conditions: Pseudomonas aeruginosa, ATCCBAA47, read-out: Tobramycin (MIC), alone; determined alongside each C/A lot
Protocol: Bacteria were incubated at 37° C. for the standard 20 hours.
P. aeuriginosa produces the fluorescent pigment pyocyanin, which can be correlated with bacterial growth.

[7] = system: VRE (Vancomycin resistant Enterococcus); experiment: Sensitization summary: VRE to Vancomycin; assay type: cell-based, Enterococcus faecium; conditions: for Antibiotic concentration (MIC) in presence of chitosan-arginine: 24 hour treatment
Source text: as §2

K. pneumoniae = experiment: Sensitization summary: K. pneumoniae to Gentamicin; assay type: cell-based, Klebsiella pneumoniae
Protocol: as §2, §3

A. baumannii = experiment: Sensitization summary: A. baumannii to Gentamicin; assay type: cell-based, Acinetobacter baumannii
Source text: as §2

[8] = 0 μg/ml chitosan-arginine added (antibiotic alone)
[9] = 0.5 μg/ml chitosan-arginine added
[10] = 1 μg/ml chitosan-arginine added
[11] = 2 μg/ml chitosan-arginine added
[12] = 4 μg/ml chitosan-arginine added, * = lowest value measured
[13] = with chitosan-arginine 0.125 μg/mL, 24 hour treatment

Compound	MIC of antibiotic [1, 8]	MIC of antibiotic [1, 9]	MIC of antibiotic [1, 10]	MIC of antibiotic [1, 11]	factor of decrease of MIC [1]	MIC of antibiotic [1, 12]	further results
O=C(O)c1cn(C2CC2)c2cc(N3CCNCC3)c(F)cc2c1=O [Ciprofloxacin]	2 µg/mL	1 µg/mL	1 µg/mL	.5 µg/mL	≥ 80	–	–
C/C(=C\C(=O)OCCCCCCCCC(=O)O)C[C@@H]1OC[C@H](C[C@@H]2O[C@H]2[C@@H](C)[C@H](C)O)[C@@H](O)[C@H]1O [Mupirocin]	–	–	–	–	–	–	effect of mupirocin alone on MMRSA ([2]; 1 μg/mL): completely ineffective; antibacterial effectiveness of Mupirocin alone ([2]; doses below 64 to 128 μg/mL): ineffective; mupirocin concentration at which MMRSA is sensitive ([2]; mupirocin alone, 24 hours in water): 128 µg/mL; lowest Mupirocin dose to which MMRSA is sensitized ([2]; with 4 μg/mL chitosan-arginine): 8 µg/mL; MIC of antibiotic alone against resistant bacteria (MMRSA): MMRSA (>64) μg/mL
Cc1onc(-c2ccccc2)c1C(=O)N[C@@H]1C(=O)N2[C@@H]1SC(C)(C)[C@@H]2C(=O)O [Oxacillin]	–	–	–	–	–	–	MIC of antibiotic alone against resistant bacteria (MRSA; MRSA, Oxacillin resistance breakpoint 4 μg/mL): MRSA (>25) μg/mL; Antibiotic concentration (MIC) in presence of chitosan-arginine (MRSA; with chitosan-arginine 4 μg/mL, 24 hour treatment): 0.2 µg/mL; MIC ([3]; read-out: MIC of Oxa alone): 4 µg/mL; MIC ([3]; read-out: MIC of Oxa with C/A): 1 µg/mL; bactericidal concentration [4]: > 6.25 µg/mL; effect on growth of the bacteria, agent alone [5]: Neither antimicrobial alone had a significant an effect
CO[C@H]1/C=C/O[C@@]2(C)Oc3c(C)c(O)c4c(O)c(c(/C=N/N5CCN(C)CC5)c(O)c4c3C2=O)NC(=O)/C(C)=C\C=C\[C@H](C)[C@H](O)[C@@H](C)[C@@H](O)[C@@H](C)[C@H](OC(C)=O)[C@@H]1C [Rifampicin]	8 µg/mL	4 µg/mL	2 µg/mL	1 µg/mL	16	0.5 µg/mL	–
[Ag] [Silver]	0.042 µg/mL	0.021 µg/mL	0.021 µg/mL	0.005 µg/mL	≥ 40	≤ 0.001* μg/ml	–
NC[C@H]1O[C@H](O[C@H]2[C@H](O)[C@@H](O[C@H]3O[C@H](CO)[C@@H](O)[C@H](N)[C@H]3O)[C@H](N)C[C@@H]2N)[C@H](N)C[C@@H]1O [Tobramycin]	–	–	–	–	–	–	MIC [6]: 0.5 µg/mL
CN[C@H](CC(C)C)C(=O)N[C@H]1C(=O)N[C@@H](CC(N)=O)C(=O)N[C@H]2C(=O)N[C@H]3C(=O)N[C@H](C(=O)N[C@H](C(=O)O)c4cc(O)cc(O)c4-c4cc3ccc4O)[C@H](O)c3ccc(c(Cl)c3)Oc3cc2cc(c3O[C@@H]2O[C@H](CO)[C@@H](O)[C@H](O)[C@H]2O[C@H]2C[C@](C)(N)[C@H](O)[C@H](C)O2)Oc2ccc(cc2Cl)[C@H]1O [Vancomycin]	–	–	–	–	–	–	MIC of antibiotic alone against resistant bacteria ([7]; VRE, Vancomycin resistance breakpoint 32 μg/mL): VRE (>32) μg/mL; Antibiotic concentration (MIC) in presence of chitosan-arginine ([7]; with chitosan-arginine 2 μg/mL): 2 µg/mL; Antibiotic concentration (MIC) in presence of chitosan-arginine ([7]; with chitosan-arginine 4 μg/mL): 12.5 µg/mL
Gentamicin	–	–	–	–	–	–	MIC of antibiotic alone against resistant bacteria (K. pneumoniae; K. pneumoniae, Gentamicin resistance breakpoint 64 μg/mL): K. pneumoniae (64) μg/mL; Antibiotic concentration (MIC) in presence of chitosan-arginine (K. pneumoniae; [13]): 16 µg/mL; MIC of antibiotic alone against resistant bacteria (A. baumannii; A. baumannii, Gentamicin resistance breakpoint 64 μg/mL): A. baumannii (64) μg/mL; Antibiotic concentration (MIC) in presence of chitosan-arginine (A. baumannii; [13]): 16 µg/mL
Neomycin	8 µg/mL	4 µg/mL	2 µg/mL	1 µg/mL	16	0.5 µg/mL	–
